# Values quoted from earlier work as cited in publication PMC4862372 (Bioorganic & medicinal chemistry, 2016).
# Test system: Huh7 cells
# Conditions: high-throughput screen performed by GNF
smiles,measurement,value
"O=C(NCCc1nc(-c2ccccc2)cs1)c1ccccc1 [Compound 1, 2-(2-Benzamido)ethyl-4-phenylthiazole]",Toxicity to mammalian (Huh7) cells,non-toxic
